Data published in patent publication US20150330989A1, “METHOD AND SYSTEM FOR DIAGNOSING AND TREATING PREECLAMPSIA” (THE BRIGHAM AND WOMEN'S HOSPITAL, INC., priority 2012, published 2015).

How the values were obtained:
[1] = system: severe preeclampsia/HELLP syndrome; test: Case report: Eculizumab treatment of a pregnant patient with severe preeclampsia/HELLP syndrome; assay type: in vivo, human; conditions: initial course during Eculizumab treatment
[2] = system: patent ductus arteriosus; test: NICU course of the neonate; assay type: in vivo, human
Protocol: The neonate was intubated at 10 min of life for respiratory support and admitted to the NICU. They were extubated the following morning after one dose of surfactant; blood cultures were negative; and head ultrasound was normal. NICU course was notable for a patent ductus arteriosus (responsive to Indomethacin) and inguinal hernia repair (day 67), after which they were discharged home in good condition. There were trace levels of Eculizumab in cord blood samples taken at delivery, thought secondary to contamination with maternal blood.

[3] = target: T1, C3 convertase, classical (Homo sapiens, UniProt P06681); conditions: in vitro; cited from earlier work
T1 sequence (P06681 244-752 limits assumed): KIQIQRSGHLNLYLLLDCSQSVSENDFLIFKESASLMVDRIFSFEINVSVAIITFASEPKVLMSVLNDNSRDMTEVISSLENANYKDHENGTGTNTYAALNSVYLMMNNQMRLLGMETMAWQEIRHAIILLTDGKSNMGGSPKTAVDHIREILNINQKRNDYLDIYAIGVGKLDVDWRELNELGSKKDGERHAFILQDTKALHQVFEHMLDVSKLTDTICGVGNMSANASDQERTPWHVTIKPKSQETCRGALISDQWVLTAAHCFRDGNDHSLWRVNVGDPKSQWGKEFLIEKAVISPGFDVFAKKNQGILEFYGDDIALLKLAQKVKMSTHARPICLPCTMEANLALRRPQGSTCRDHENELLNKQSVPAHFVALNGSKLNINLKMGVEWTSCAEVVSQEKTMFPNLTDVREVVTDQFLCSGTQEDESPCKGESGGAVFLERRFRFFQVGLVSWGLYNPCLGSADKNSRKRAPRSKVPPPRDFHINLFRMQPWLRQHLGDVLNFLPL

[4] = target: factor D (Homo sapiens, UniProt P00746); conditions: site of action factor D; cited from earlier work
Sequence of factor D (P00746 26-253): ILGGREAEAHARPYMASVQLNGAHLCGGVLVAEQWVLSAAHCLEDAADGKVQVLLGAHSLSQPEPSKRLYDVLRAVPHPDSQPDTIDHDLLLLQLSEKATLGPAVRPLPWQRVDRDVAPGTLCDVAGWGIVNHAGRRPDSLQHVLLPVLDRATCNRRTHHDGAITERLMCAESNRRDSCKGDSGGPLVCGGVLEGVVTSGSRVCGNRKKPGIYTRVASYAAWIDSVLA

[5] = target: T2, C2, classical (Homo sapiens, UniProt P06681); conditions: in vitro; cited from earlier work
T2 sequence (P06681 21-752): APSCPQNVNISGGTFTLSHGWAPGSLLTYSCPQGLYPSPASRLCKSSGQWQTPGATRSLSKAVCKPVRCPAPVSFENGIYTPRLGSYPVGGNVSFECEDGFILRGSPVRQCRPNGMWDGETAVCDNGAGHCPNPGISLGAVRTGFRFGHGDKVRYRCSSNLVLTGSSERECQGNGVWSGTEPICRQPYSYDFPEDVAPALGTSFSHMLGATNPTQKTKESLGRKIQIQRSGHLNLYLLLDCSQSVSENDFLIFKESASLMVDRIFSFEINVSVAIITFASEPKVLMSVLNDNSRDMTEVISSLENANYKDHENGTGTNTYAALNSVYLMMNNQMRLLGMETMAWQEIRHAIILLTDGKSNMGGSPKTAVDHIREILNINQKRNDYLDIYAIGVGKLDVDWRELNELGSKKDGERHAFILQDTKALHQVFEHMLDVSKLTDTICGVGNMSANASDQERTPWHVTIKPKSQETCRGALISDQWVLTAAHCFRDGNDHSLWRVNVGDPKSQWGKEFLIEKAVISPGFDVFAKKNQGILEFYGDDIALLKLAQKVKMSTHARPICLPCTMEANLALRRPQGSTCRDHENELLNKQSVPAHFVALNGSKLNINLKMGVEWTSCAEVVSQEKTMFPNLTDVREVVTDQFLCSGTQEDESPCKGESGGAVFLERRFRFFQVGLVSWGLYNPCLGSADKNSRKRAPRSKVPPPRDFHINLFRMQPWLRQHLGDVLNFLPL

NS(=O)(=O)c1cc(C(=O)O)c(NCc2ccco2)cc1Cl [Lasix]
pulmonary edema, response [1]: responded

COc1ccc2c(c1)c(CC(=O)O)c(C)n2C(=O)c1ccc(Cl)cc1 [Indomethacin]
patent ductus arteriosus, response [2]: responsive

O=C(/C=C/c1ccc(O)c(O)c1)O[C@H](Cc1ccc(O)c(O)c1)C(=O)O [Rosmarinic acid]
IC50 [3]: 5 to 10 µM

N=C(N)c1cc2ccc(OC(=O)c3cccs3)cc2s1 [BCX-1470]
IC50 [4]: 0.096 µM

CC1(C)[C@@H](O[C@H]2O[C@H](C(=O)O)[C@@H](O)[C@H](O)[C@H]2O[C@@H]2O[C@H](C(=O)O)[C@@H](O)[C@H](O)[C@H]2O)CC[C@]2(C)[C@H]3C(=O)C=C4[C@@H]5C[C@@](C)(C(=O)O)CC[C@]5(C)CC[C@@]4(C)[C@]3(C)CC[C@@H]12 [Glycyrrhizin]
IC50 [5]: 35 µM

CC(CCc1ccccc1)NCC(O)c1ccc(O)c(C(N)=O)c1 (stereo not drawn) [Labetalol]
escalating blood pressures, response [1]: responded
